Experimental data: patent publication US20200163913A1 (Shanghai Huali Biomedical Co., Ltd., priority 2017, published 2020)
Like-named read-outs stand apart in the source and are kept apart here.

What was measured:
[1] = tested on: human cervical cancer cell HeLa; experiment: CCK-8 cell proliferation inhibition, HeLa; type: cell-based; conditions: Homo sapiens, HeLa, 72 h, CCK-8, 72 h; read-out: IC50 Hela
Procedure: (§1) Take more than 90% of live cells for experiments. Cell proliferation inhibition test uses EnoGeneCell™ Counting Kit-8 (CCK-8) cell viability detection kit. Cells are digested and counted to make a cell suspension with a concentration of 1×10^5 cells/mL, 100 μL of cell suspension (1×10^4 cells per well) was added to each well of a 96-well plate; Incubate in a 5% CO2 incubator for 24 hours; add 100 μL of the corresponding drug-containing culture medium to each well, and set a negative control group, a vehicle control group, and a positive control group, with 5 replicates in each group; place the 96-well plate at 37° C.

[2] = tested on: human colon cancer cell HCT-116; experiment: CCK-8 cell proliferation inhibition, HCT-116; type: cell-based; conditions: Homo sapiens, HCT-116, 72 h, CCK-8, 72 h; read-out: IC50 HTC116
Procedure: as §1

[3] = tested on: human liver cancer cell HepG2; experiment: CCK-8 cell proliferation inhibition, HepG2; type: cell-based; conditions: Homo sapiens, HepG2, 72 h, CCK-8, 72 h; read-out: IC50 HepG2
Procedure: as §1

[4] = tested on: human gastric cancer cell MKN45; experiment: CCK-8 cell proliferation inhibition, MKN45; type: cell-based; conditions: MKN-45, 72 h, CCK-8, 72 h, read-out: IC50 MKN45
Procedure: as §1

[5] = tested on: human gastric cancer cell MGC-803; experiment: CCK-8 cell proliferation inhibition, MGC-803; type: cell-based; conditions: MGC-803, 72 h, CCK-8, 72 h, read-out: IC50 MGC803
Procedure: as §1

Tubulin = Tubulin polymerization activity test; type: biochemical; conditions: tubulin 4.8 mg/ml, 37° C., 340 nm; read-out: IC50 (Table 3, tubulin polymerization test)
Procedure: Tubulin (4.8 mg/ml) protein was mixed with the test compound in a PEM buffer (100 mM PIPES, 1 mM MgCl2 and 1 mM EGTA) containing 1 mM GTP and 5% glycerol. A SPECTRA MAX 190 (Molecular Device) spectrophotometer was used to monitor the microtubule polymerization at 37° C. by light scattering at 340 nm, and the microtubule polymerization was calculated from the absorbance value. Each sample was tested three times at ten different concentrations.

[6] = tested on: human lung cancer cell A549; experiment: CCK-8 cell proliferation inhibition, A549; type: cell-based; conditions: A549, CCK-8, 72 h, read-out: IC50 A549
Procedure: as §1

Arylsulfatase = Arylsulfatase activity assay in vitro; type: biochemical
Procedure: Weigh an appropriate amount of the test compound and dissolve it in dimethyl sulfoxide. Dilute it with Tris-HCl buffer for 2, 5, 10, 20, 50, 100, 200, 500, 1000, 2000, 5000, and 10,000 times. Add another dilution gradient to the sample. Arylsulfatase and potassium p-nitrophenyl sulfate are directly dissolved in Tris-HCl buffer. 40 μL of the test compound, 50 μL of arylsulfatase and 50 μL of potassium p-nitrobenzene sulfate were added to a 96-well plate for reaction. A blank control without enzymes and a standard control without test compounds are used. The volume is made up with Tris-HCl buffer. 405 nm detection in the microplate reader, each sample is measured for 40 times, and the interval is 30 s. The representative time node within the time period with good linearity of the absorbance value are selected for data analysis. The measured absorbance value are subtracted from the background value of the blank control and the initial value when the reaction time are 0. For comparison, calculate the inhibition rate at different concentrations, and use the built-in forecast function of excel to predict the IC50 value.

[7] = p-nitrophenyl sulfate substrate, 405 nm, read-out: IC50 sulfatase

SMILES	IC50 [1]	IC50 [2]	IC50 [3]	IC50 [4]	IC50 [5]	IC50 (Tubulin)	melting point	IC50 [6]	IC50 (Arylsulfatase; [7])	IC50 (Arylsulfatase; read-out: sulfatase inhibitory activity)
COc1cc(CCc2ccc(OC(F)F)c(OS(N)(=O)=O)c2)cc(OC)c1OC [Compound A3-3]	35.6 µM	26.5 µM	15.9 µM	23.3 µM	71.4 µM	86.2 µM	142.5 to 145.8 °C	–	–	–
COc1cc(/C=C\c2cccc(OS(N)(=O)=O)c2)cc(OC)c1OC [Compound A4-1, (Z)-3,4,5-trimethoxy-3′-sulfamate stilbene]	16.3 µM	9.5 µM	9.36 µM	8.53 µM	15.3 µM	–	107.1 to 110.6 °C	11 µM	470 nM	< 500 nM
COc1cc(/C=C/c2cccc(OS(N)(=O)=O)c2)cc(OC)c1OC [Compound A4-2, (E)-3,4,5-trimethoxy-3′-sulfamate stilbene]	19 µM	40.3 µM	11.8 µM	27 µM	25 µM	–	136.3 to 139.7 °C	21.5 µM	–	–
COc1cc(CCc2cccc(OS(N)(=O)=O)c2)cc(OC)c1OC [Compound A4-3, 3,4,5-trimethoxy-3′-sulfamate diphenylethane]	27.1 µM	52.5 µM	12 µM	17.6 µM	25.7 µM	–	108.4 to 120.8 °C	25.8 µM	–	–
COc1ccc(/C=C\c2cc(OC)c(OC)c(OC)c2)cc1NS(N)(=O)=O [Compound A5-1, (Z)-3,4,5-trimethoxy-4′-methoxy-3′-aminosulfamate stilbene]	0.272 µM	3.29 µM	0.752 µM	0.5 µM	9.56 µM	–	143.3 to 146.7 °C	0.299 µM	–	–
COc1ccc(/C=C/c2cc(OC)c(OC)c(OC)c2)cc1NS(N)(=O)=O [Compound A5-2, (E)-3,4,5-trimethoxy-4′-methoxy-3′-aminosulfamate stilbene]	0.38 µM	8.64 µM	7.53 µM	6.19 µM	18.9 µM	–	157.9 to 161.1 °C	7.42 µM	–	–
COc1ccc(CCc2cc(OC)c(OC)c(OC)c2)cc1NS(N)(=O)=O [Compound A5-3, 3,4,5-trimethoxy-4′-methoxy-3′-aminosulfamate diphenylethane]	2.93 µM	30.6 µM	8.1 µM	8.21 µM	73.9 µM	–	122.5 to 126.5 °C	12 µM	–	–
C[C@]12CC[C@@H]3c4ccc(OS(N)(=O)=O)cc4CC[C@H]3[C@@H]1CCC2=O [EMATE, 3-(sulfamoyloxy)-estr-1,3,5 (10)-triene-17-one, reference compound]	–	–	–	–	–	25.9 µM	–	–	5010 nM	–
COc1ccc(CCc2cc(OC)c(OC)c(OC)c2)cc1O [Erianin, 3,4,5-trimethoxy-3′-hydroxy-4′-methoxydiphenylethane, reference compound]	0.207 µM	6.29 µM	0.237 µM	0.425 µM	0.449 µM	–	–	0.22 µM	–	–
